pIC50: −log10 of the molar value. “Also recorded” adds a separate entry of the source. Read-outs that look alike come from different tables or passages of the source.
Columns and labels:
Format in all cases: cell-based, human
P4E6, PC-3, LNCaP = assay: MTS assay, average over cancer cell lines; conditions: average of P4E6, PC-3, LNCaP
Experimental: (§1) In this study, six different prostate cell lines (PNT1A, PNT2-C2, BPH-1, PC-3, LNCaP, P4E6) were used (Table 1). These cell lines encompass the spectrum of cellular differentiation status (basal, intermediate and luminal phenotypes), as well as the spectrum of normal, early cancer and late cancer. BPH-1 is derived from benign prostate hyperplasia (BPH), while PNT2-C2 and PNT1A are derived from normal prostate. PC-3, LNCaP and P4E6 are cancer cell lines. LNCaP, PNT2-C2, PNT1A were grown in RPMI medium with 10% FCS (foetal calf serum); PC-3 was grown in Ham’s F-12 medium with 7% FCS; BPH-1 was grown in RPMI medium with 5% FCS; P4E6 was grown in KSFM (Keratinocyte serum free medium) with 2% FCS. No antibiotics were used in any media. The cells were incubated at 37°C in a humidified atmosphere containing 5% CO2.
(§2) This assay was performed for the initial screening of the effect of the Pd complex on the cell lines and the whole cell population of primary cultures. The CellTiter 96® Aqueous One Solution Cell Proliferation Assay kit (G3580, Promega, Madison, WI, USA) was used and the manufacturer’s instructions were followed. Briefly, after treating cells that were seeded at a density of 5,000 cells per well in a 96-well plate in triplicate for a desired period (24 h, 48 h, 72 h), 20 µL of reagent was added to each well. Following 2.5 h incubation at 37°C, the absorbance was read at 485 nm using a plate reader (PolarStar Optima, BMG Labtech, UK). Percent viability was calculated using the formula (% Viability = [(Sample Absorbance/Control Absorbance)]×100.
MTS and ATP assays were performed in triplicate and data presented as the mean +/− standard deviation. IC50 values (Table 3 and Table 4) were calculated from graphs of transformed data following application of the nonlinear regression (curve fit) that represents the log(inhibitor) ‘v’ normalized response (GraphPad Prism software) (Supplementary Figures S1 and S2). For significance calculations, the Wilcoxon rank sum test was used (Sigmaplot). […]

BPH primary cells = assay: MTS assay, primary cultures from benign prostate hyperplasia
Excerpt: (§3) Primary prostate epithelial cells were isolated from human tissue samples. The samples were collected with ethical permission from York District Hospital (York, UK) and Castle Hill Hospital (Cottingham, UK). Benign prostatic hyperplasia (BPH) and prostate cancer samples were obtained from TURP (transurethral resection of the prostate), radical prostatectomy (laparoscopic and open) and cystectomy operations. All patients gave written consent for their tissue to be used for research and all patient samples were anonymised. Permission was approved by the Local Research Ethical Committees, associated with York District Hospital and Castle Hill Hospital. Permission was administered by the Yorkshire and Humber Research Ethics Committee.
(§4) Prostate epithelial cells were cultured as previously described in stem cell media (SCM) consisting of keratinocyte serum-free media (KSFM) with bovine pituitary extract (BPE) and epidermal growth factor (EGF), glutamine, stem cell factor (SCF), granulocyte macrophage colony stimulating factor (GM-CSF), leukaemia inhibitory factor (LIF) and cholera toxin. Cells were grown with STO feeder cells (irradiated at 60 Gy) on collagen I-coated plates.
as §2
(§5) MTS and ATP assays were performed in triplicate and data presented as the mean +/− standard deviation. IC50 values (Table 3 and Table 4) were calculated from graphs of transformed data following application of the nonlinear regression (curve fit) that represents the log(inhibitor) ‘v’ normalized response (GraphPad Prism software) (Supplementary Figures S1 and S2). For significance calculations, the Wilcoxon rank sum test was used (Sigmaplot). Flow cytometry analysis was carried out in triplicate and results are presented as an average with error bars indicating the standard error.

[1] = tested on: PCa Primary cells (Gl8/9); assay: MTS assay, primary cultures from prostate carcinoma Gleason 8/9
Excerpt: as §3, §4, §2, §5

[2] = tested on: PNT1A, PNT2-C2, BPH-1, PC-3, LNCaP, P4E6; assay: MTS assay, panel of six prostate cell lines; conditions: 100 µM, 72 h
Experimental: as §1
as §2, with “Briefly, after treating cells that were seeded at a density of 5,000 cells per well in a 96-well plate in triplicate for a desired period (24 h, 48 h, 72 h), 20 µL of reagent was added to each well.” left out, “Absorbance)]×100. […]” for “Absorbance)]×100.”

cleaved caspase-3 = assay: Western blotting for apoptosis, primary cultures
Experimental: Following drug treatment, cell lysates were harvested using Cytobuster Protein Extraction Reagent (71009, EMD Millipore, Darmstadt, Germany) with protease inhibitors (cOmplete, EDTA-free Protease Inhibitor Cocktail Tablets, Roche Applied Science, UK). 20 µg of protein extract were loaded on 12% SDS-PAGE gels and wet-transferred to a PVDF membrane. Antibodies used include: monoclonal anti-β-actin 1∶5000 (A5316, Sigma-Aldrich), anti-LC3B 1∶3000 (Ab51520, abcam), cleaved caspase-3 (Asp175) 1∶1000 (9661S, Cell Signaling Technology) and secondary antibodies were Rabbit anti-mouse-HRP 1∶10000 (P0260, Dako) and anti-rabbit IgG HRP-linked 1∶5000 (Cell Signaling Technology Inc. 7074S). Kaleidoscope protein marker was run on each gel (161-0324, Bio-Rad).

LC3-II = assay: Western blotting and immunofluorescence for autophagy, primary cells; conditions: all primary cells
Experimental: γH2AX staining: Cells were seeded onto 8-well collagen I-coated chamber slides. […] After blocking of non-specific binding with 2% BSA in PBS with 1% goat serum for 1 hour at RT, primary antibody (anti-phospho-histone H2A.X (Ser139), clone JBW301, Millipore, Cat no. 05–636) at 1∶1000 dilution was added in 3% BSA in PBS at 4°C overnight followed by three washes in 0.5% BSA in PBS with 0.175% Tween 20. Following incubation with secondary antibody (Goat anti-mouse Alexa Fluor 568, Invitrogen, Cat no. A-11004) at 1∶1000 dilution for 45 min in 3% BSA in PBS and three more washes in the same washing buffer, the slides were mounted using Vectashield with DAPI (Vector Laboratories, Cat no. H-1200). LC3-B staining: Cells were treated as above then fixed with 4% paraformaldehyde, followed by an incubation in 0.3% Triton X-100. After blocking with 10% normal goat serum, cells were incubated in anti-LC3B 1∶200 (Ab51520, abcam) diluted in 0.1% Triton X-100 in PBS. Secondary antibody was Alexa Fluor 568 goat anti-rabbit IgG 1∶1000 (Invitrogen A11011).

Question: Which results are given for [PdCl(terpy)](sac)⋅2 H2O [Pd complex]?
Answer: pIC50 (P4E6, PC-3, LNCaP; 24 h): 4.12; pIC50 (P4E6, PC-3, LNCaP; 48 h): 4.63; pIC50 (P4E6, PC-3, LNCaP; 72 h): 4.94; pIC50 (BPH primary cells; BPH primary cells, sample 1608, 72 h, read-out: IC50): 5.22; pIC50 (BPH primary cells; BPH primary cells, sample 3108, 72 h, read-out: IC50): 5.14; pIC50 (BPH primary cells; BPH primary cells, sample 7611, 72 h, read-out: IC50): 5.16; pIC50 (BPH primary cells; BPH primary cells, sample 8109, 72 h, read-out: IC50): 4.84; pIC50 (BPH primary cells; average of BPH primary cells, 72 h, read-out: IC50 AVERAGE): 5.06; reduction of cell viability compared to etoposide (BPH primary cells; benign samples, both at 25 µM, 72 h, median values): at least 5.6 fold; pIC50 ([1]; PCa primary cells (Gl8/9), sample 14912, 72 h, read-out: IC50): 4.19; pIC50 ([1]; PCa primary cells (Gl8/9), sample 16312, 72 h, read-out: IC50): 4.15; pIC50 ([1]; PCa primary cells (Gl8/9), sample 22912, 72 h, read-out: IC50): 4.33; pIC50 ([1]; average of PCa primary cells (Gl8/9), 72 h, read-out: IC50 AVERAGE): 4.22; growth inhibition of all cell lines [2]: almost completely; cleaved caspase-3 (apoptosis) (cleaved caspase-3; BPH primary sample): only a positive result with the BPH sample at a low dose; cleaved caspase-3 (apoptosis) (cleaved caspase-3; primary cancer samples): no evidence of cleaved caspase-3; also recorded: No apoptosis was induced; LC3-II (autophagy) (LC3-II): clear increase in LC3-II

— article PMC3651166, “Differential Cytotoxic Activity of a Novel Palladium-Based Compound on Prostate Cell Lines, Primary Prostate Epithelial Cells and Prostate Stem Cells” (PLoS ONE, 2013)
